According to US10206907B2, “Compounds useful for the treatment of degenerative and inflammatory diseases” (GALAPAGOS NV, priority 2008, dated 2019):
Like-named read-outs stand apart in the source and are kept apart here.

Experiments:
[1] = target: Recombinant human JAK3 catalytic domain (Homo sapiens (Human), UniProt P52333); test: JAK3 inhibition assay; assay type: biochemical; conditions: semi-quantitative score
[2] = target: Recombinant human JAK2 catalytic domain (Homo sapiens (Human), UniProt O60674); test: JAK2 inhibition assay; assay type: biochemical
Sequence of Recombinant human JAK2 catalytic domain (O60674 808-1132): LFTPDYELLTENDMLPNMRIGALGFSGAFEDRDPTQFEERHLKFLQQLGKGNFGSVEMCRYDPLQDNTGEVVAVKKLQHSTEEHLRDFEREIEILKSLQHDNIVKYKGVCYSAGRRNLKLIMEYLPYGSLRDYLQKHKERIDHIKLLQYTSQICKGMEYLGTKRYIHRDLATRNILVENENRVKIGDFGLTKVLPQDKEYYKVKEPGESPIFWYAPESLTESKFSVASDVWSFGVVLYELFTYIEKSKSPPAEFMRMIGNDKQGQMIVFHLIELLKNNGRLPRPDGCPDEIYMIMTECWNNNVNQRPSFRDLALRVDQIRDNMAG
Summary of the method: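 Radiometric kinase reactions ran for 90 min at 30 °C and were stopped with phosphoric acid, then washed and counted by scintillation. Percent inhibition was set relative to vehicle and to 10 μM staurosporine background. IC50 was derived from dose-dilution series.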

[3] = target: Recombinant human TYK2 catalytic domain (Homo sapiens (Human), UniProt P29597); test: TYK2 inhibition assay; assay type: biochemical
Sequence of Recombinant human TYK2 catalytic domain (P29597 871-1187): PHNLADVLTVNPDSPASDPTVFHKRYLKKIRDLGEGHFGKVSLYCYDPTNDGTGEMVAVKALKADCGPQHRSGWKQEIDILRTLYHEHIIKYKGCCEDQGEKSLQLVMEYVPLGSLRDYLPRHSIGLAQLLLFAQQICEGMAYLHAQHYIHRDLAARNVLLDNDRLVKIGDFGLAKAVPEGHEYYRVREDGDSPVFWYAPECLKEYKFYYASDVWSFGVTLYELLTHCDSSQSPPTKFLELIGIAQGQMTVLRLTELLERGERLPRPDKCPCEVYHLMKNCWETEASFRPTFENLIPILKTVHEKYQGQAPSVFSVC
Procedure: After 90 min at 30° C., reactions were stopped by adding of 25 μL/well of 150 mM phosphoric acid. […] Plates were washed 6 times with 300 μL per well of a 75 mM phosphoric acid solution and the bottom of the plates was sealed. 40 μL/well of Microscint-20 was added, the top of the plates was sealed and readout was performed using the Topcount (Perkin Elmer). Kinase activity was calculated by subtracting counts per minute (cpm) obtained in the presence of a positive control inhibitor (10 μM staurosporine) from cpm obtained in the presence of vehicle. The ability of a test compound to inhibit this activity was determined as: Percentage inhibition=((cpm determined for sample with test compound present−cpm determined for sample with positive control inhibitor) divided by (cpm determined in the presence of vehicle−cpm determined for sample with positive control inhibitor))*100%.
Dose dilution series were prepared for the compounds enabling the testing of dose-response effects in the TYK2 assay and the calculation of the IC50 for each compound.

[4] = target: Recombinant human JAK1 catalytic domain (Homo sapiens (Human), UniProt P23458); test: JAK1 inhibition assay; assay type: biochemical
Sequence of Recombinant human JAK1 catalytic domain (P23458 850-1154): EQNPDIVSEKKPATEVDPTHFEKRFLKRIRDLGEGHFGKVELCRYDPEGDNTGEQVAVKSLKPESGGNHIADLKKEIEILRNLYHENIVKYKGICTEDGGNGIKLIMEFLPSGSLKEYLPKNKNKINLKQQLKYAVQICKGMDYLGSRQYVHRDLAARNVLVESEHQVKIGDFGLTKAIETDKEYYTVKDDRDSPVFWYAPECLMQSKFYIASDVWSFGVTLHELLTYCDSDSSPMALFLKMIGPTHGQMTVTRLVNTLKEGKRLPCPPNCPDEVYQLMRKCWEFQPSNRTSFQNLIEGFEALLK
Summary of the method: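 Radiometric assay read by scintillation counting after phosphoric-acid washes. Percent inhibition calculated from cpm relative to vehicle and 10 μM staurosporine control. IC50 derived from compound dose-dilution series.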

[5] = Microsomal stability, human liver microsomes; assay type: in vitro ADME; conditions: percentage of compound remaining after 60 minutes, 3 μM compound
Summary of the method: (§1)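 Compound was incubated with liver microsomes plus an NADP+/glucose-6-phosphate/G6PDH/MgCl2 regenerating system at 37°C for 1 h. Reactions were stopped 1:1 with MeOH or ACN and analysed by LCMS.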

[6] = Microsomal stability, rat liver microsomes; assay type: in vitro ADME; conditions: percentage of compound remaining after 60 minutes, 3 μM compound
Summary of the method: as §1

MMP13 in SW1353 cells = test: OSM/IL-1β signaling assay (MMP13 levels in SW1353 cells); assay type: cell-based; conditions: Homo sapiens; SW1353 cells, OSM and IL-1β triggered, MMP13 levels 48 hours after triggering; read-out: MMP13 EC50;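 note: secreted MMP13 captured by antibody, activated with APMA and its activity read by fluorescence, inhibition scaled between vehicle-treated triggered wells (0%) and untriggered wells (100%)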
[7] = test system: JAK-STAT signalling in HeLa cells; test: JAK-STAT signalling assay (OSM-triggered pSTAT1(2)-luciferase reporter in HeLa cells); assay type: cell-based; conditions: Homo sapiens; HeLa cells, OSM-triggered pSTAT1(2)-luciferase reporter; read-out: STAT signalling EC50
Summary of the method: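 HeLa cells transiently transfected with pSTAT1(2)-luciferase reporter plus LacZ internal control, incubated overnight at 37 °C, 10% CO2, then OSM-stimulated with compound. Luciferase read by Steadylite luminescence and normalised to β-galactosidase (ONPG); percent inhibition from controls, EC50 from dose-response.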

Sequence of Recombinant human JAK3 catalytic domain (P52333 781-1124): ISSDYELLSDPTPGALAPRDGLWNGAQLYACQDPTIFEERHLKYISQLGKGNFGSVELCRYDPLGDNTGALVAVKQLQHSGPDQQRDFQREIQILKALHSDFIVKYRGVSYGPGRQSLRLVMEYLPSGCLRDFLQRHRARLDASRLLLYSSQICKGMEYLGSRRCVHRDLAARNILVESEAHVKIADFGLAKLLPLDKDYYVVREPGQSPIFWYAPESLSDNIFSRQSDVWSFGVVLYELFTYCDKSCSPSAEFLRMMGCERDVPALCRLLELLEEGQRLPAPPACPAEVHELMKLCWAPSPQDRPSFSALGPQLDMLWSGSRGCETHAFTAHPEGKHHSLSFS

CN1CCN(c2ccc(-c3cccc4nc(NC(=O)C5CC5)nn34)cc2)CC1 [Compound 1, N-(5-(4-(4-methylpiperazin-1-yl)phenyl)-[1,2,4]triazolo[1,5-a]pyridin-2-yl)cyclopropanecarboxamide]
IC50 [1]: > 1000 nM
IC50 ([2]; semi-quantitative score): 501 to 1000 nM
IC50 ([3]; semi-quantitative score): > 1000 nM
IC50 ([4]; semi-quantitative score): 101 to 500 nM

O=C(Nc1nc2cccc(-c3ccc(NS(=O)(=O)c4ccc(F)cc4)cc3)n2n1)C1CC1 [Compound 33, N-(5-(4-(4-fluorophenylsulfonamido)phenyl)-[1,2,4]triazolo[1,5-a]pyridin-2-yl)cyclopropanecarboxamide]
IC50 [1]: > 1000 nM
IC50 ([2]; semi-quantitative score): < 100 nM
Microsomal Stability Human (%) [5]: **** (**** 76-100)
IC50 ([3]; semi-quantitative score): 101 to 500 nM
Microsomal Stability Rat (%) [6]: ** (** 26-50)
IC50 ([4]; semi-quantitative score): < 100 nM
EC50 (MMP13 in SW1353 cells): > 1000 nM
EC50 [7]: > 1000 nM

O=C(Nc1nc2cccc(-c3ccc(OCC4CCC4)cc3)n2n1)C1CC1 [Compound 39, N-(5-(4-(cyclobutylmethoxy)phenyl)-[1,2,4]triazolo[1,5-a]pyridin-2-yl)cyclopropanecarboxamide]
IC50 [1]: > 1000 nM
IC50 ([2]; semi-quantitative score): < 100 nM
Microsomal Stability Human (%) [5]: ** (** 26-50)
IC50 ([3]; semi-quantitative score): > 1000 nM
Microsomal Stability Rat (%) [6]: ** (** 26-50)
IC50 ([4]; semi-quantitative score): < 100 nM
EC50 (MMP13 in SW1353 cells): > 1000 nM
EC50 [7]: > 1000 nM

O=C(Nc1nc2cccc(-c3ccc(OCC4CCCCC4)cc3)n2n1)C1CC1 [Compound 41, N-(5-(4-(cyclohexylmethoxy)phenyl)-[1,2,4]triazolo[1,5-a]pyridin-2-yl)cyclopropanecarboxamide]
IC50 ([2]; semi-quantitative score): 101 to 500 nM
Microsomal Stability Human (%) [5]: ** (** 26-50)
IC50 ([3]; semi-quantitative score): > 1000 nM
Microsomal Stability Rat (%) [6]: ** (** 26-50)
IC50 ([4]; semi-quantitative score): < 100 nM
EC50 (MMP13 in SW1353 cells): 501 to 1000 nM
EC50 [7]: 501 to 1000 nM

O=C(Nc1ccccc1)c1ccc(-c2cccc3nc(NC(=O)C4CC4)nn23)cc1 [Compound 43, 4-(2-(cyclopropanecarboxamido)-[1,2,4]triazolo[1,5-a]pyridin-5-yl)-N-phenylbenzamide]
IC50 [1]: > 1000 nM
Microsomal Stability Human (%) [5]: **** (**** 76-100)
IC50 ([3]; semi-quantitative score): > 1000 nM
Microsomal Stability Rat (%) [6]: **** (**** 76-100)
IC50 ([4]; semi-quantitative score): 101 to 500 nM

O=C(Nc1nc2cccc(-c3ccc(Oc4ccccc4)cc3)n2n1)C1CC1 [Compound 46, N-(5-(4-phenoxyphenyl)-[1,2,4]triazolo[1,5-a]pyridin-2-yl)cyclopropanecarboxamide]
IC50 [1]: > 1000 nM
IC50 ([2]; semi-quantitative score): 101 to 500 nM
Microsomal Stability Human (%) [5]: * (* 0-25)
IC50 ([3]; semi-quantitative score): > 1000 nM
Microsomal Stability Rat (%) [6]: * (* 0-25)
IC50 ([4]; semi-quantitative score): < 100 nM
EC50 (MMP13 in SW1353 cells): > 1000 nM
EC50 [7]: > 1000 nM

Cc1noc(C)c1COc1ccc(-c2cccc3nc(NC(=O)C4CC4)nn23)cc1 [Compound 49, N-(5-(4-((3,5-dimethylisoxazol-4-yl)methoxy)phenyl)-[1,2,4]triazolo[1,5-a]pyridin-2-yl)cyclopropanecarboxamide]
IC50 [1]: > 1000 nM
IC50 ([2]; semi-quantitative score): 101 to 500 nM
Microsomal Stability Human (%) [5]: * (* 0-25)
IC50 ([3]; semi-quantitative score): > 1000 nM
Microsomal Stability Rat (%) [6]: * (* 0-25)
IC50 ([4]; semi-quantitative score): < 100 nM
EC50 (MMP13 in SW1353 cells): > 1000 nM
EC50 [7]: > 1000 nM

Cc1cc(COc2ccc(-c3cccc4nc(NC(=O)C5CC5)nn34)cc2)n(C)n1 [Compound 50]
IC50 [1]: 101 to 500 nM
IC50 ([2]; semi-quantitative score): < 100 nM
Microsomal Stability Human (%) [5]: ** (** 26-50)
IC50 ([3]; semi-quantitative score): > 1000 nM
Microsomal Stability Rat (%) [6]: * (* 0-25)
IC50 ([4]; semi-quantitative score): < 100 nM
EC50 (MMP13 in SW1353 cells): > 1000 nM
EC50 [7]: > 1000 nM

O=C(Nc1nc2cccc(-c3ccc(NS(=O)(=O)c4ccccc4F)cc3)n2n1)C1CC1 [Compound 54, N-(5-(4-(2-fluorophenylsulfonamido)phenyl)-[1,2,4]triazolo[1,5-a]pyridin-2-yl)cyclopropanecarboxamide]
IC50 [1]: > 1000 nM
IC50 ([2]; semi-quantitative score): < 100 nM
Microsomal Stability Human (%) [5]: **** (**** 76-100)
IC50 ([3]; semi-quantitative score): 101 to 500 nM
Microsomal Stability Rat (%) [6]: *** (*** 51-75)
IC50 ([4]; semi-quantitative score): < 100 nM
EC50 (MMP13 in SW1353 cells): > 1000 nM
EC50 [7]: > 1000 nM

O=C(NCc1ccccc1)c1ccc(-c2cccc3nc(NC(=O)C4CC4)nn23)cc1 [Compound 56, N-benzyl-4-(2-(cyclopropanecarboxamido)-[1,2,4]triazolo[1,5-a]pyridin-5-yl)benzamide]
IC50 [1]: > 1000 nM
IC50 ([2]; semi-quantitative score): 101 to 500 nM
Microsomal Stability Human (%) [5]: **** (**** 76-100)
IC50 ([3]; semi-quantitative score): > 1000 nM
Microsomal Stability Rat (%) [6]: * (* 0-25)
IC50 ([4]; semi-quantitative score): < 100 nM
EC50 (MMP13 in SW1353 cells): > 1000 nM
EC50 [7]: > 1000 nM

O=C(Nc1nc2cccc(-c3ccc(OCc4ccccc4)nc3)n2n1)C1CC1 [Compound 57, Cyclopropanecarboxylic Acid [5-(6-benzyloxy-pyridin-3-yl)-[1,2,4]triazolo[1,5-a]pyridin-2-yl]-amide]
IC50 [1]: 501 to 1000 nM
IC50 [2]: < 100 nM
Microsomal Stability Human (%) [5]: ** (** 26-50)
IC50 [3]: > 1000 nM
Microsomal Stability Rat (%) [6]: ** (** 26-50)
IC50 [4]: < 100 nM
EC50 (MMP13 in SW1353 cells): > 1000 nM
EC50 [7]: > 1000 nM

O=C(Nc1nc2cccc(-c3ccc(C(=O)N4CCc5ccccc5C4)cc3)n2n1)C1CC1 [Compound 58]
IC50 [1]: > 1000 nM
IC50 ([2]; semi-quantitative score): 101 to 500 nM
Microsomal Stability Human (%) [5]: * (* 0-25)
IC50 ([3]; semi-quantitative score): > 1000 nM
Microsomal Stability Rat (%) [6]: * (* 0-25)
IC50 ([4]; semi-quantitative score): < 100 nM
EC50 (MMP13 in SW1353 cells): 501 to 1000 nM
EC50 [7]: > 1000 nM

Cc1cc(COc2ccc(-c3cccc4nc(NC(=O)C5CC5)nn34)cc2)nn1C [Compound 62]
IC50 [1]: 101 to 500 nM
IC50 ([2]; semi-quantitative score): < 100 nM
Microsomal Stability Human (%) [5]: ** (** 26-50)
IC50 ([3]; semi-quantitative score): > 1000 nM
Microsomal Stability Rat (%) [6]: * (* 0-25)
IC50 ([4]; semi-quantitative score): < 100 nM
EC50 (MMP13 in SW1353 cells): > 1000 nM
EC50 [7]: > 1000 nM

O=C(Nc1nc2cccc(-c3ccc(-c4cccnc4)cc3)n2n1)C1CC1 [Compound 66, N-(5-(4-(pyridin-3-yl)phenyl)-[1,2,4]triazolo[1,5-a]pyridin-2-yl)cyclopropanecarboxamide]
IC50 ([2]; semi-quantitative score): 101 to 500 nM
Microsomal Stability Human (%) [5]: **** (**** 76-100)
IC50 ([3]; semi-quantitative score): 501 to 1000 nM
Microsomal Stability Rat (%) [6]: * (* 0-25)
IC50 ([4]; semi-quantitative score): < 100 nM
EC50 (MMP13 in SW1353 cells): > 1000 nM
EC50 [7]: > 1000 nM

O=C(COc1ccc(-c2cccc3nc(NC(=O)C4CC4)nn23)cc1)Nc1cccc(F)c1 [Compound 116, N-(5-(4-(2-(3-fluorophenylamino)-2-oxoethoxy)phenyl)-[1,2,4]triazolo[1,5-a]pyridin-2-yl)cyclopropanecarboxamide]
IC50 [1]: 501 to 1000 nM
IC50 ([2]; semi-quantitative score): 101 to 500 nM
Microsomal Stability Human (%) [5]: *** (*** 51-75)
IC50 ([3]; semi-quantitative score): > 1000 nM
Microsomal Stability Rat (%) [6]: * (* 0-25)
IC50 ([4]; semi-quantitative score): < 100 nM
EC50 (MMP13 in SW1353 cells): > 1000 nM
EC50 [7]: > 1000 nM
